Results taken from patent US10925890B2, “Use of dextran sulfate” (TX MEDIC AB, priority 2014, dated 2021).

What was measured:
[1] = Mortality and clinical signs, tMCAO rat study; assay type: in vivo; details: for Rats that died within 10 hours after dosing: vehicle group 1M: 6
Procedure: Started two hours after occlusion (immediately after reperfusion), animals in groups 2M and 3M (dextran sulfate at doses of 30 mg/kg three times a week or 15 mg/kg daily) and animals in group 1M (vehicle control) were injected subcutaneously, see Table 10.
Eighteen rats died during the study. One rat died just after reperfusion before dosing, and seventeen rats within 10 hours after dosing (6 in group 1M, 6 in group 2M and 5 in group 3M).

[2] = system: Critical Hind-Limb Ischemia Mouse Model; assay: Macroscopic evaluation of ischemic severity (necrosis grades), mouse hind-limb ischemia
Description: On the day of surgery anesthesia was induced by 1.5 to 3.0% isoflurane, 1.5% N2O and 0.5% O2. Under anesthesia, the mice were placed with ventral side up. A 0.5-1.0 cm incision was made in the skin in the inguinal area. The femoral artery was ligated proximally just after the distal part of the iliac artery and distally after its bifurcation with profound femoral artery with 6-0 silk thread, transected and excised between two ligatures. The wound was closed with 4-0 silk thread and the mice were allowed to recover.
On day 8, week 2 post-surgery, each animal in groups 2M and 3M were injected dextran sulfate solution s.c. three times a week.

[3] = system: Rat Hind-Limb Ischemia Model; assay: Ischemic severity (necrosis grades), rat hind-limb ischemia; assay type: in vivo; details: all groups incl. vehicle; Day 7 up to Day 28
Procedure: The femoral artery and vein were ligated twice with 4-0 silk thread and transected between the ligatures. The wound was closed with 3-0 silk thread and the rats were allowed to recover.
Animals in group 4M and 5M were injected s.c. once on Day 8, see Table 12.

[4] = system: Critical Hind-Limb Ischemia Mouse Model; assay: Immunohistochemistry and capillaries density (CD34, SMA, FITC-dextran), mouse hind-limb ischemia; assay type: in vivo
Procedure: Mice were sacrificed at study termination on day 36. Fluorescein isothiocyanate (FITC)—dextran 500000 Da conjugate 10 mg/ml was injected i.v. in a dose of 200 μl per mouse 5 minutes before sacrifice to all animals. Quadriceps muscle was dissected into coronary part. The muscle was fixed in 2.5% fresh paraformaldehyde (pH 7.4) for 24 hours and was then embedded in the paraffin for smooth muscle actin (SMA) with mouse monoclonal antibodies (anti-SMA Ab-1, clone 1A4, 1:800, Thermo scientific) and CD34 with anti CD34 (1:200, Cedralene) immunostaining. Paraffin embedding was done according the standard embedding procedure.
Stained sections were evaluated and photographed by fluorescence microscope (E600; Nikon, Tokyo, Japan) equipped with plan fluor objectives connected to a CCD camera (DMX1200F; Nikon). […] Digital images were collected and analyzed using Image Pro+ software. Four sections of muscle samples were taken from the same areas of eight animals from groups 1M, 3M and 4M. The area of blood vessels was measured. Density was expressed as the mean number of capillaries per field of view. Total vessels represent all blood vessels in the measured area.

tMCAO rat-stroke model [5] = assay: Stepping test, tMCAO rat; assay type: in vivo; details: groups 2M and 3M; from day 7 to day 28
Procedure: (§1) Transient middle cerebral artery occlusion was performed according to the method previously described in Stroke 29, 2162-2170 (1998). The right common carotid artery (CCA) was exposed through a midline neck incision and carefully dissected free from surrounding nerves and fascia—from its bifurcation to the base of the skull. The occipital artery branches of the external carotid artery (ECA) were then isolated, and these branches were dissected and coagulated. The ECA was dissected further distally and coagulated along with the terminal lingual and maxillary artery branches, which was then divided. The internal carotid artery (ICA) was isolated and carefully separated from the adjacent vagus nerve, and the pterygopalatine artery was ligated close to its origin with a 5-0 nylon suture (SMI, Belgium). […]
Animals were tested for forelimb akinesia using the stepping test. […] The number of adjusting steps were counted while the animal was moved sideways along the table surface (85 cm in approximately five seconds), in the forehand and backhand direction for both forelimbs.

tMCAO rat-stroke model [6] = assay: Brain immunostaining: capillaries density (SMA) and GFAP, tMCAO rat; assay type: in vivo
Description: On day 30 after MCAO, rats were anesthetized by ketamine/xylazine were transcardiacly perfused by buffered paraformaldehyde (PFA) 4%. The brains were collected fixed in 4% buffered PFA for immunostaining and histological evaluation.
Two sections of brain samples were taken from the same areas of six animals from groups 1M and 3M. Capillaries were counted under the microscope in a total of three random fields from each section. Density was expressed as the mean number of capillaries per field of view.

tMCAO rat-stroke model [7] = assay: Neurological test score (Neuroscore, mNRS), tMCAO rat; assay type: in vivo; details: groups 2M (30 mg/kg 3 times per week) and 3M (daily); day 7 up to day 28
Procedure: as §1, with “Belgium). Next a 4-0 silk suture was tied loosely around the mobilized ECA stump, and a 4 cm length of 4-0 monofilament nylon suture (the tip of the suture was blunted by using a flame, and the suture was coated with polylysine, prior to insertion) was inserted through the proximal ECA into the ICA and thence into the circle of Willis, effectively occluding the MCA. The surgical wound was closed and the animals were returned to their cages to recover from anesthesia.” for “Belgium).”

[8] = day 7 (before treatment start day 8), group 2M, 10 mg/kg 3 times/week
[9] = day 7 (before treatment start day 8), group 3M, 30 mg/kg 3 times/week
[10] = day 7 (before treatment start day 8), group 4M, 30 mg/kg 1 time/week

## Dextran sulfate
[1]; all animal groups
  Adverse clinical signs: No adverse clinical signs unrelated to the model
[1]; group 2M, 30 mg/kg s.c. 3 times a week
  Rats that died within 10 hours after dosing: 6 rats
[1]; group 3M, 15 mg/kg s.c. daily
  Rats that died within 10 hours after dosing: 5 rats
[2]; [8]
  Incidence of mice with limb amputation: 0.0%
  Incidence of mice with toe necrosis: 0.0%
[2]; [9]
  Incidence of mice with limb amputation: 0.0%
  Incidence of mice with toe necrosis: 0.0%
[2]; [10]
  Incidence of mice with limb amputation: 0.0%
  Incidence of mice with toe necrosis: 0.0%
[2]; day 35, group 2M, 10 mg/kg s.c. 3 times/week, vehicle 15.4
  Incidence of mice with limb amputation: 0.0%
[2]; day 35, group 2M, 10 mg/kg s.c. 3 times/week, vehicle 23.1
  Incidence of mice with toe necrosis: 21.4%
[2]; day 35, group 3M, 30 mg/kg s.c. 3 times/week, vehicle 15.4
  Incidence of mice with limb amputation: 0.0%
[2]; day 35, group 3M, 30 mg/kg s.c. 3 times/week, vehicle 23.1
  Incidence of mice with toe necrosis: 14.3%
[2]; day 35, group 4M, 30 mg/kg s.c. 1 time/week, vehicle 15.4
  Incidence of mice with limb amputation: 7.1%
[3]
  Toe necrosis or foot amputation: no toe necrosis or foot amputation was found
[4]; CD34 and FITC-dextran capillaries density, FIG. 4
  Angiogenesis in ischemic (right) vs non-ischemic (left) limb: only induce angiogenesis in the ischemic tissue
[4]; groups 3M and 4M (30 mg/kg) vs 1M, day 35
  Number of CD34 positive capillaries compared to control group: larger
[4]; groups 3M and 4M, ischemic limb
  FITC-dextran staining of capillaries (functional capillaries): functioning and active
[4]; treated groups vs control
  SMA staining, capillaries formation: same increase in capillaries formations
tMCAO rat-stroke model [5]
  Stepping test, functional improvement compared to control: improvement reached statistical significance
tMCAO rat-stroke model [6]; 15 mg/kg daily vs vehicle control
  Number of SMA capillaries with diameter less than 30 μm: Improvement
tMCAO rat-stroke model [6]; 15 mg/kg daily, 30 days after stroke
  Number of capillaries compared to vehicle treated control: increased the number of capillaries
tMCAO rat-stroke model [6]; GFAP area, day 30
  Inflammatory response compared to vehicle treated control: reduced inflammatory response
tMCAO rat-stroke model [7]
  Neuroscore (0-18) compared to vehicle treated control: Statistically significant differences
